Where only a bound is given, the exact number is not on record here.

Drawing on patent publication US7998952B2, “Thiolactams and uses thereof” (Millennium Pharmaceuticals, Inc., priority 2008, dated 2011), this text covers IC50 for 22 molecules.

In this assay the target is T1, recombinant human PLK1[2-369]T210D (Homo sapiens, UniProt P53350, T210D).
T1 construct: recombinant human PLK1[2-369]T210D; Smt (SUMO) fusion partner (N, cleaved yes); host or cells: E. coli
T1 sequence (P53350 2-369 T210D): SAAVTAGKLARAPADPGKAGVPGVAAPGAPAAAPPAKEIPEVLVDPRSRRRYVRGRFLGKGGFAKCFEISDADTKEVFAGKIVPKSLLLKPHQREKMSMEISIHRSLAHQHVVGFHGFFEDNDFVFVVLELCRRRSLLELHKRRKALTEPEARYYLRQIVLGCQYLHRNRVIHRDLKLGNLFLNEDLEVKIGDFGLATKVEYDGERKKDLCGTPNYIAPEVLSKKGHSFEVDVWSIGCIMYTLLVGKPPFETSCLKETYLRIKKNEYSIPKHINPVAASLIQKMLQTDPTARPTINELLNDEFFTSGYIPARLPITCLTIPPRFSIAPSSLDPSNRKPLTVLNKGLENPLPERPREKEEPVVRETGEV
Nature of the assay: PLK1 DELFIA Kinase Assay. Type of assay: biochemical. The note with it: 50 μM ATP, 2 μM peptide substrate, 0.3 nM enzyme, 90 minutes at room temperature. Summed up: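 E. coli-expressed human PLK1, cleaved from an Smt fusion after Ni2+ purification, is reacted with or without inhibitor for 90 minutes at room temperature and stopped with EDTA. Product is captured on Neutravidin plates and quantified by europium DELFIA time-resolved fluorescence.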
One may read the IC50 as the concentration needed to halve the response being measured. With `Cc1ncc(Nc2ncc3c(n2)-c2ccc(Cl)cc2NC(=S)C3)cc1CCCN(C)C` [Compound I-94, 9-chloro-2-({5-[3-(dimethylamino)propyl]-6-methylpyridin-3-yl}amino)-5,7-dihydro-6H-pyrimido[5,4-d][1]benzazepine-6-thione], the IC50 was less than 5 nM.

`Cc1nc(N(C)C2CCN(C)C2)ccc1Nc1ncc2c(n1)-c1ccc(C(F)(F)F)cc1NC(=S)C2` (stereo not shown) [Compound I-95, 2-({2-methyl-6-[methy(1-methylpyrrolidin-3-yl)amino]pyridin-3-yl}amino)-9-(trifluoromethyl)-5,7-dihydro-6H-pyrimido[5,4-d][1]benzazepine-6-thione]: the IC50 is less than 5 nM.

As to `Cc1nc2c(cc1Nc1ncc3c(n1)-c1ccc(Cl)cc1NC(=S)C3)CC(N(C)C)CC2` (stereo not shown) [Compound I-96, 9-chloro-2-{[6-(dimethylamino)-2-methyl-5,6,7,8-tetrahydroquinolin-3-yl]amino}-5,7-dihydro-6H-pyrimido[5,4-d][1]benzazepine-6-thione], the IC50 is less than 5 nM.

Take `Cc1nc(NCCN(C)C)ccc1Nc1ncc2c(n1)-c1ccc(Cl)cc1NC(=S)C2` [Compound I-97, 9-chloro-2-[(6-{[2-(dimethylamino)-ethyl]amino}2-methylpyridin-3-yl)amino]-5,7-dihydro-6H-pyrimido[5,4-d][1]benzazepine-6-thione]: the IC50 lay in the range of 5 to 25 nM.

Regarding `Cc1ccnc(C)c1Nc1ncc2c(n1)-c1ccc(C(F)(F)F)cc1NC(=S)C2` [Compound I-98, 2-[(2,4-dimethylpyridin-3-yl)amino]-9-(trifluoromethyl)-5,7-dihydro-6H-pyrimido[5,4-d][1]benzazepine-6-thione], the IC50 is greater than 25 nM.

Regarding `Cc1ncc(CCN(C)C)cc1Nc1ncc2c(n1)-c1ccc(Cl)cc1NC(=S)C2` [Compound I-99, 9-chloro-2-({5-[2-(dimethylamino)-ethyl]-2-methylpyridin-3-yl}amino)-5,7-dihydro-6H-pyrimido[5,4-d][1]benzazepine-6-thione], the IC50 was less than 5 nM.

`Cc1nc(N2CCOCC2)ccc1Nc1ncc2c(n1)-c1ccc(C(F)(F)F)cc1NC(=S)C2` [Compound I-100, 2-[(2-methyl-6-morpholin-4-ylpyridin-3-yl)amino]-9-(trifluoromethyl)-5,7-dihydro-6H-pyrimido[5,4-d][1]benzazepine-6-thione]: the IC50 is less than 5 nM.

As to `Cc1nc(CCCN(C)C)ccc1Nc1ncc2c(n1)-c1ccc(C(F)(F)F)cc1NC(=S)C2` [Compound I-101, 2-({6-[3-(dimethylamino)propyl]-2-methylpyridin-3-yl}amino)-9-(trifluoromethyl)-5,7-dihydro-6H-pyrimido[5,4-d][1]benzazepine-6-thione], the IC50 is 5 to 25 nM.

Consider `CC(C)(C)C(=O)Nc1ccc(Nc2ncc3c(n2)-c2ccc(Cl)cc2NC(=S)C3)cn1` [Compound I-102, N-{5-[(9-chloro-6-thioxo-6,7-dihydro-5H-pyrimido[5,4-d][1]benzazepin-2-yl)amino]pyridin-2-yl}-2,2-dimethylpropanamide], for which the IC50 was 5 to 25 nM.

`Cc1ncc(N2CCN(C)CC2)cc1Nc1ncc2c(n1)-c1ccc(Cl)cc1NC(=S)C2` [Compound I-103, 9-chloro-2-{[2-methyl-5-(4-methylpiperazin-1-yl)pyridin-3-yl]amino}-5,7-dihydro-6H-pyrimido[5,4-d][1]benzazepine-6-thione]: the IC50 was less than 5 nM.

As for `CN(C)CCc1cncc(Nc2ncc3c(n2)-c2ccc(Cl)cc2NC(=S)C3)c1` [Compound I-104, 9-chloro-2-({5-[2-(dimethylamino)ethyl]pyridin-3-yl}amino)-5,7-dihydro-6H-pyrimido[5,4-d][1]benzazepine-6-thione], the IC50 is less than 5 nM.

Regarding `Cc1nc(N(C)C2CCN(C)CC2)ccc1Nc1ncc2c(n1)-c1ccc(Cl)cc1NC(=S)C2` [Compound I-105, 9-chloro-2-({2-methyl-6-[methyl(1-methylpiperidin-4-yl)amino]pyridin-3-yl}amino)-5,7-dihydro-6H-pyrimido[5,4-d][1]benzazepine-6-thione], the IC50 was less than 5 nM.

Regarding `Cc1nc(N2CCCC2)ccc1Nc1ncc2c(n1)-c1ccc(Cl)cc1NC(=S)C2` [Compound I-106, 9-chloro-2-[(2-methyl-6-pyrrolidin-1-ylpyridin-3-yl)amino]-5,7-dihydro-6H-pyrimido[5,4-d][1]benzazepine-6-thione], the IC50 was less than 5 nM.

Take `CN1CCN(c2cncc(Nc3ncc4c(n3)-c3ccc(Cl)cc3NC(=S)C4)c2)CC1` [Compound I-107, 9-chloro-2-{[5-(4-methylpiperazin-1-yl)pyridin-3-yl]amino}-5,7-dihydro-6H-pyrimido[5,4-d][1]benzazepine-6-thione]: the IC50 was less than 5 nM.

With `Cc1nc(N2CCOCC2)ccc1Nc1ncc2c(n1)-c1ccc(Cl)cc1NC(=S)C2` [Compound I-109, 9-chloro-2-[(2-methyl-6-morpholin-4-ylpyridin-3-yl)amino]-5,7-dihydro-6H-pyrimido[5,4-d][1]benzazepine-6-thione], the IC50 is less than 5 nM.

For the molecule `Cc1nc(N2CCCC2)ccc1Nc1ncc2c(n1)-c1ccc(C(F)(F)F)cc1NC(=S)C2` [Compound I-110, 2-[(2-methyl-6-pyrrolidin-1-ylpyridin-3-yl)amino]-9-(trifluoromethyl)-5,7-dihydro-6H-pyrimido[5,4-d][1]benzazepine-6-thione], the half-maximal inhibitory concentration (IC50) lay within 5 to 25 nM.

In the case of `Cc1nc(N(C)CCN(C)C)ccc1Nc1ncc2c(n1)-c1ccc(Cl)cc1NC(=S)C2` [Compound I-112, 9-chloro-2-({6-[[2-(dimethylamino)ethyl](methyl)amino]-2-methylpyridin-3-yl}amino)-5,7-dihydro-6H-pyrimido[5,4-d][1]benzazepine-6-thione], the IC50 lay in the range of 5 to 25 nM.

For `Cc1nc2c(cc1Nc1ncc3c(n1)-c1ccc(C(F)(F)F)cc1NC(=S)C3)C[C@H](N(C)C)CC2` [Compound I-113, 2-{[(6R)-6-(dimethylamino)-2-methyl-5,6,7,8-tetrahydroquinolin-3-yl]amino}-9-(trifluoromethyl)-5,7-dihydro-6H-pyrimido[5,4-d][1]benzazepine-6-thione], the IC50 was less than 5 nM.

`Cc1nc2c(cc1Nc1ncc3c(n1)-c1ccc(C(F)(F)F)cc1NC(=S)C3)C[C@@H](N(C)C)CC2` [Compound I-114]: the IC50 was less than 5 nM.

Regarding `Cc1nc2c(cc1Nc1ncc3c(n1)-c1ccc(C(F)(F)F)cc1NC(=S)C3)CCCN2` [Compound I-115, 2-[(2-methyl-5,6,7,8-tetrahydro-1,8-naphthyridin-3-yl)amino]-9-(trifluoromethyl)-5,7-dihydro-6H-pyrimido[5,4-d][1]benzazepine-6-thione], the IC50 is less than 5 nM.

Consider `Cc1nc(C(=O)NC2CCN(C)CC2)ccc1Nc1ncc2c(n1)-c1ccc(Cl)cc1NC(=S)C2` [Compound I-116, 5-[(9-chloro-6-thioxo-6,7-dihydro-5H-pyrimido[5,4-d][1]benzazepin-2-yl)amino]-6-methyl-N-(1-methylpiperidin-4-yl)pyridine-2-carboxamide], for which the IC50 was 5 to 25 nM.

On to `Cc1ncc(CCCN(C)C)cc1Nc1ncc2c(n1)-c1cc(C(F)(F)F)ccc1NC(=S)C2` [Compound I-117, 2-({5-[3-(dimethylamino)propyl]-2-methylpyridin-3-yl}amino)-10-(trifluoromethyl)-5,7-dihydro-6H-pyrimido[5,4-d][1]benzazepine-6-thione], for which the IC50 is 5 to 25 nM.
